Key:
benzodiazepine receptors = experiment: Affinity for benzodiazepine receptors (3H diazepam displacement, rat brain cortex membranes); type: binding, rats; details: 3H diazepam 10^-9 M, 30 minutes at 0° C, read-out: C.I. 50 (concentration inhibiting 50% of the specific bond of 3H diazepam)
Method: A. Affinity for benzodiazepine receptors
The technique was inspired by that of Mohler et al [Science, Vol. 198 p. 849-851 (1977] in which the cortex from the brains of male rats weighing on average 150 g were homogenized to a twentieth (weight/volume) in 0.32M sucrose. After centrifuging the homogenate at 1000 g for 10 minutes at 0° C., the supernatant was centrifuged at 30,000 g for 20 minutes at 4° C. The residue was suspended in 20 volumes of Tris buffer HCl 50 mM pH 7.4 and centrifuged at 30,000 g for 20 minutes at 4° C. The new residue obtained was placed in 50 ml of Krebs Tris buffer HCl pH 7.4
2 ml of the suspension in the presence of ^3 H diazepam at a concentration of 10^-9 M were then incubated for 30 minutes at 0° C: (i) alone, (ii) with increasing concentrations of the product to be tested or, (iii) to determine the non-specific fixation, with non-radioactive diazepam at a concentration of 10^-6 M. The incubated suspension were filtered on Whatman GF/C and the filters were washed twice with 5 ml of Krebs Tris buffer HCl pH 7.4 at 0° C. The radioactivity of the filters was measured by liquid scintillation and the activity of the product was expressed in C.I.50, the concentration inhibiting 50% of the specific bond of ^3 H diazepam.

mice = experiment: Acute toxicity, oral route in mice (LD0); type: in vivo
Method: The lethal doses LD0 of the different compounds tested after administration by oral route in mice were evaluated. The maximum dose not provoking any mortality in 8 days was called LD0 and the results obtained are in Table II.

[1] = system: level of serous corticosterone; experiment: Activity on serous level of corticosterone after stress from noise; type: in vivo; details: Rattus norvegicus, 1 h; rats, oral, stress from noise (90 decibels) one hour after dosing; read-out: DE50 (dose which reduced the increase in the level of serous corticosterone by 50%)
Method: C. Activity on serous level of corticosterone after stress from noise.
Groups of 5 rats were formed the day before the test and placed in a quiet room. The compounds were administered orally the following day between 8 and 9 o'clock in the morning. One hour afterwards, stress was applied which consisted of taking the animals from the cage and placing them in a room where a radio was playing loudly (90 decibels), then half an hour later, giving them an intraperitoneal puncture without injection. Ten minutes after this, the rats were anesthetized with halothane and samples of blood were taken by decapitation. The levels of serous corticosterone were then determined.
The results are expressed in DE50, that is to say in a dose of the compound tested which reduced the increase in the level of serous corticosterone by 50% in animals treated in comparison with the control animals. The results were DE50 in mg/kg of <50 and <100 for the compounds of Examples 2 and 4, respectively. Stress was less noticeable in the treated animals and those animals had therefore a degree of anxiety less than that of the control animals.

Row | SMILES | IC50 (benzodiazepine receptors) | LD0 (maximum dose not provoking any mortality in 8 days) (mice) | ED50 [1]
1 | O=c1c2cnc3ccccc3c2on1-c1ccccc1 [Example 1, 2-phenylisoxazolo(4,5-c)quinolin-3-(2H)-one] | 120 nM | ≥ 400 mg/kg | –
2 | O=c1c2cnc3ccc(F)cc3c2on1-c1ccccc1 [Example 2, 8-fluoro-2-phenylisoxazolo(4,5-c)quinolin-3-(2H)-one] | 400 nM | ≥ 400 mg/kg | < 50 mg/kg
3 | COc1ccc2c(c1)ncc1c(=O)n(-c3ccccc3)oc12 [Example 3, 7-methoxy-2-phenylisoxazolo(4,5-c)quinolin-3-(2H)-one] | – | ≥ 200 mg/kg | –
4 | COc1ccc2ncc3c(=O)n(-c4ccccc4)oc3c2c1 [Example 4, 8-methoxy-2-phenylisoxazolo(4,5-c)quinolin-3-(2H)-one] | 2460 nM | 200 mg/kg | < 100 mg/kg
5 | O=c1c2cnc3ccc(C(F)(F)F)cc3c2on1-c1ccccc1 [Example 5, 8-trifluoromethyl-2-phenylisoxazolo(4,5-c)quinolin-3-(2H)-one] | – | ≥ 200 mg/kg | –
6 | O=c1c2cnc3ccc(Cl)cc3c2on1-c1ccccc1 [Example 7, 8-chloro-2-phenylisoxazolo(4,5-c)quinolin-3-(2H)-one] | – | ≥ 100 mg/kg | –

From patent publication US4588731A, “Derivatives of isoxazolo[4,5-c]quinoline(2H)-3-one and method of preparation and use as anxiolytic agents” (Roussel Uclaf, priority 1985, dated 1986)
